Test results reported in patent US8993559B2, “Use of ibogamine congeners for treating obesity” (Albany Medical College, priority 2008, dated 2015).

Columns and labels:
[1] = active metabolite; cited from earlier work
rats = test: Drug self-administration and water-reinforced responding in rats (earlier studies); assay type: in vivo, rat
Protocol: Other work has extended the “anti-addictive” effect of 18-MC to oral intake of ethanol. In all cases, these effects last for at least 24 hours. […] Unlike 18-MC, ibogaine and many other iboga alkaloid congeners (approximately 30 tested) decrease responding for water as well as for drugs. And it was precisely this unique specificity that led to development and study of 18-MC.

Compound	presence in plasma as metabolite of 18-MC [1]	responding for drugs (rats; rat, in vivo)	responding for water (non-drug reinforcer) (rats; same doses that decrease drug self-administration)
COC(=O)[C@@]12C[C@H]3C[C@H](CCO)[C@@H]1N(CCc1c2[nH]c2ccccc12)C3 [18-hydroxycoronaridine]	present in plasma in low concentrations	–	–
ibogaine [reference compound]	–	decrease	decrease
